Laboratory results: US20220002359A1, “Voltage-Gated Calcium Channel Auxilliary Subunit Alpha 2 Delta and Uses Thereof” (Novassay, S.A., priority 2017, published 2022)
Like-named read-outs stand apart in the source and are kept apart here.

How the values were obtained:
[1] = SPR binding of NVA1309 to immobilized P4-derived peptides, RU400 as % of peptide P4; conditions: for % BINDING (RU400) 0.5 mM: NVA1309 0.5 mM; for % BINDING (RU400) 1 mM: NVA1309 1 mM; for % BINDING (RU400) 2 mM: NVA1309 2 mM; for % BINDING (RU400) mean: mean of 0.5, 1 and 2 mM NVA1309; for NVA1309 binding to the peptide, in words: compared with peptide P4
Experimental: (§1) This peptide was covalently coupled via the carboxy-terminal cysteine to the surface (FC2) of a Biacore CM5 optical sensor chip as described in Example 4 following the Biacore thiol coupling procedure. Compound NVA1309 was injected as analyte at increasing concentrations and the binding reaction was monitored by generation of real time sensorgrams, presented as subtracted curves from the blank FC1 dextran reference surface (FIGS. 14A & 14B).
Sensorgram running conditions were: • Compound stock solution: 50 mM, Dimethyl sulfoxide (DMSO) • Compound working dilution: 0.5-2 mM • Running buffer: HBS-P • Flow rate: 30 μl/min
This peptide was covalently coupled via the carboxy-terminal cysteine to the surface (FC3) of a new Biacore CM5 optical sensor chip using the Biacore thiol coupling procedure. Peptide P4 was immobilized on FC2 as a positive reference control, flow cell FC1 was left blank as negative background binding reference. Compound NVA1309 was injected as analyte at increasing concentrations and the binding reaction was monitored by generation of real time sensorgrams as described in the previous examples and presented as subtracted curves from the blank FC1 dextran reference surface.
A series of three concentration SPR binding experiments were carried out with peptides derived from the peptide P4 sequence (SEQ ID No. 7). These peptides were designed in order to determine the significance of single peptide 4-contained (P4) amino acid residues in binding compound NVA1309. The following peptides were prepared:
Synthetic peptides were covalently coupled to optical sensor chips via the terminal cysteines following the Biacore thiol coupling procedure and SPR binding experiments were run exactly under the same conditions as described in the previous examples. Relative binding strengths of the single peptides were read from three concentration RU400 values and calculated as percentage binding of the peptide P4 reference (P4: RU400=100%). […]

[2] = target: human voltage-gated calcium channel subunit α2δ-1 (Homo sapiens, UniProt P54289)
[3] = target: T1, α2δ-1 (RRR mutated to RRA) (Mus musculus, UniProt O08532, R241A); conditions: knock-in mutant mouse; cited from earlier work
T1 construct: host or cells: knock-in mutant mouse (in vivo)

[4] = target: T2, truncated recombinant α2δ-1 protein, Construct 2 (SEQ ID No. 3) (Homo sapiens, UniProt P54289); assay: SPR binding of analyte to immobilized truncated α2δ-1 construct 2; conditions: RU400, subtracted from human IgG reference; NVA1309 at increasing concentrations, pregabalin at 500 μM
T2 construct: His tag; GST; made in house; host or cells: CHO cells (transient expression)
Experimental: Binding experiments were carried out using Surface Plasmon Resonance (SPR) technology in a Biacore instrument. Recombinant construct 1 and construct 2 were immobilized on the surface of two different flow cells (FC2 and FC3, respectively) of a Biacore CM5 optical sensor chip by covalent amine coupling chemistry, using the Biacore amine coupling kit and following the Biacore amine coupling protocol. Human IgG was immobilized to the reference flow cell FC1 as intra-assay background binding control.

[5] = target: truncated recombinant α2δ-1 protein, Construct 1 (SEQ ID No. 2) (Homo sapiens, UniProt P54289); assay: SPR binding of analyte to immobilized truncated α2δ-1 construct 1; conditions: RU400, subtracted from human IgG reference; NVA1309 at increasing concentrations, pregabalin at 500 μM
[6] = system: α2δ-1; conditions: partial sciatic ligation neuropathy, α2δ-1−/− mice; cited from earlier work
[7] = target: Peptide 1 (P1; SEQ ID No. 4) comprising the gabapentin/pregabalin binding site of α2δ-1 (Homo sapiens, UniProt P54289); assay: SPR binding to immobilized synthetic peptide P1; conditions: RU400, subtracted from blank dextran reference
Experimental: Thiol coupling allows for uniform surface presentation of the immobilized peptide molecules and provides freedom to adopt a steric conformation that is determined by the amino acid sequence of the peptide.
Sensorgram running conditions were: • Compound stock solution: 50 mM, DMSO • Compound working stock dilution: 0.5-2 mM • Running buffer: HBS-P • Flow rate: 30 μl/min

[8] = target: T3, α2δ-1 recombinant peptide (SEQ ID No. 5) comprising the VGCC_α2 domain (Homo sapiens, UniProt P54289); assay: SPR binding to immobilized α2δ-1 recombinant peptide; conditions: RU400, subtracted from BSA reference; 0.5-2 mM
T3 construct: purchased CUSABIO CSB-YP004407HU; host or cells: yeast
Text: The α2δ-1 recombinant peptide comprising the VGGC_α2 domain and containing a single cysteine near the carboxy terminus, was immobilized on the surface of a Biacore CM5 optical sensor chip using the Biacore Thiol Coupling Kit following the covalent thiol coupling chemistry. This immobilization process provides a sterically more uniform attachment of the ligand molecules to the sensor chip surface than the randomized amine coupling procedure. Bovine serum albumin (BSA) was immobilized to the reference flow cell FC1 as intra-assay background binding control. Compound NVA1309 was injected as analyte at increasing concentrations and the binding reaction was monitored by generation of real time sensorgrams, presented as subtracted curves from the BSA reference (see […]).
Sensorgram running conditions were: • Compound stock solution: 50 mM, Dimethyl sulfoxide (DMSO) DMSO • Compound working dilution: 0.5-2 mM • Running buffer: HBS-P • Flow rate: 30 μl/min

[9] = target: T4, Peptide P3 (SEQ ID No. 6), carboxy terminal region of the VGGC_α2 domain of α2δ-1 (Homo sapiens, UniProt P54289); assay: SPR binding to immobilized synthetic peptide P3; conditions: RU400, subtracted from blank dextran reference; 0.5-2 mM
T4 construct: three glycines and a terminal cysteine (Peptide 3); made in house; host or cells: chemical synthesis
Text: A synthetic peptide was constructed, representing the carboxy terminal of the VGGC_α2 domain of α2δ-1, carboxy-terminally fused to a flexible spacer consisting of three glycines and a terminal cysteine (Peptide 3; SEQ ID No. 6):
as §1, with “using the Biacore Thiol Coupling Kit” for “as described in Example 4”, “procedure. This strategy allows for uniform surface presentation of the immobilized peptide molecules and provides freedom to adopt a steric conformation determined by the amino acid sequence of the peptide.” for “procedure.”, “(see FIG. 13A).” for “(FIGS. 14A & 14B).”
Sensorgram running conditions were: • Compound stock solution: 50 mM, Dimethyl sulfoxide (DMSO) DMSO • Compound working dilution: 0.5-2 mM • Running buffer: HBS-P (Biacore) • Flow rate: 30 μl/min

[10] = target: T5, α2δ-1 recombinant peptide (SEQ ID No. 5) containing the VGCC_α2 domain (Homo sapiens, UniProt P54289); assay: biochemical
Experimental: (§2) The equilibrium dissociation constant KD=kd/ka was calculated and provides a single concentration estimate of the compound target binding affinity.

[11] = target: T5, α2δ-1 recombinant peptide (SEQ ID No. 5) containing the VGCC_α2 domain; conditions: Langmuir 1:1 fit, single concentration data
Experimental: as §2

[12] = P4 RU400=100%, P4 scanning (Example 6)

T5 sequence (P54289 528-668): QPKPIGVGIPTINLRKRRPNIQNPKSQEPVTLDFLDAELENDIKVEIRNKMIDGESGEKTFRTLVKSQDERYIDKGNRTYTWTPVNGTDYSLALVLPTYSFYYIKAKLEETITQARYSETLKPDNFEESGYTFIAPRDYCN
Chain of Peptide 1 (P1; SEQ ID No. 4) comprising the gabapentin/pregabalin binding site of α2δ-1 (P54289 with tags, fused parts or gaps limits assumed): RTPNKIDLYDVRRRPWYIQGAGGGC
Chain of truncated recombinant α2δ-1 protein, Construct 1 (SEQ ID No. 2) (P54289 with tags, fused parts or gaps): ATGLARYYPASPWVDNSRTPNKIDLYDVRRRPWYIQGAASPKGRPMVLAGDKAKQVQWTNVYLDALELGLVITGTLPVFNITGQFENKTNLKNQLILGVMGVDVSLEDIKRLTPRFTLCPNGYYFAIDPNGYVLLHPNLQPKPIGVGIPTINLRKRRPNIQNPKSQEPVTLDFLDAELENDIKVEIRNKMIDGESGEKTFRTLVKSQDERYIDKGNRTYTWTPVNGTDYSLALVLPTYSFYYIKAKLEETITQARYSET
Chain of human voltage-gated calcium channel subunit α2δ-1 (P54289 25-1103): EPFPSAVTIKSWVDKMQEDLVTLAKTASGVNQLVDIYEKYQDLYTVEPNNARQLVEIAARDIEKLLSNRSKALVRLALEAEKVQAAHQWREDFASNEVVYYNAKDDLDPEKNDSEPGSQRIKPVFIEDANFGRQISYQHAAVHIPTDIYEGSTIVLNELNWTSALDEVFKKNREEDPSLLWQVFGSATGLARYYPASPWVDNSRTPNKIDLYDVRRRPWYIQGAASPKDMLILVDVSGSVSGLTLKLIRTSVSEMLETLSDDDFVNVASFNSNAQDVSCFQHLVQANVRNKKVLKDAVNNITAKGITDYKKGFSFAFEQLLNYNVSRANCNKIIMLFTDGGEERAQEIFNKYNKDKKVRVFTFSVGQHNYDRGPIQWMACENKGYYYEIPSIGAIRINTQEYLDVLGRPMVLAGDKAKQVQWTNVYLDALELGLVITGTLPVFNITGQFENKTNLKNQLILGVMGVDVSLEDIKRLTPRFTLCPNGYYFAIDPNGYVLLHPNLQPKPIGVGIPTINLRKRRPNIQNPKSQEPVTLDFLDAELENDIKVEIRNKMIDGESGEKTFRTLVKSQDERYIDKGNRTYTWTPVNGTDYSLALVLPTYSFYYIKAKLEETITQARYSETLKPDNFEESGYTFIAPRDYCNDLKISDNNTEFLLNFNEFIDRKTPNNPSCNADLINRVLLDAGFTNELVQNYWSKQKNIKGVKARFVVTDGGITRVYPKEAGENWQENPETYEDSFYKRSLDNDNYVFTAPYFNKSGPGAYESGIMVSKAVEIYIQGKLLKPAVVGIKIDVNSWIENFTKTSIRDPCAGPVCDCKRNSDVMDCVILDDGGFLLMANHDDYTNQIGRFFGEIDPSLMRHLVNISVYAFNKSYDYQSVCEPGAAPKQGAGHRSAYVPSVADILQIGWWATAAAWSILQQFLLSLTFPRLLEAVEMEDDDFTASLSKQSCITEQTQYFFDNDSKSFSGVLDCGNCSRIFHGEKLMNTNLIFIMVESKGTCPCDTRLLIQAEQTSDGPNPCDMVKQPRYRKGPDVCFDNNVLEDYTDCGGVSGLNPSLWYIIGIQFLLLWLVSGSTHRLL
T2 sequence (P54289 with tags, fused parts or gaps): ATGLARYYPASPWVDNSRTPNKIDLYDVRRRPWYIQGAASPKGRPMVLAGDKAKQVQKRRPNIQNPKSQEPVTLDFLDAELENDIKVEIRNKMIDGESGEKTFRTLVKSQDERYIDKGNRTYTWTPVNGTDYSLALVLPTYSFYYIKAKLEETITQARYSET
T4 sequence (P54289 with tags, fused parts or gaps limits assumed): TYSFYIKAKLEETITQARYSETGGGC
T3 sequence (P54289 528-668): as the sequence (P54289 528-668) above
T1 sequence (O08532 25-1103 R241A): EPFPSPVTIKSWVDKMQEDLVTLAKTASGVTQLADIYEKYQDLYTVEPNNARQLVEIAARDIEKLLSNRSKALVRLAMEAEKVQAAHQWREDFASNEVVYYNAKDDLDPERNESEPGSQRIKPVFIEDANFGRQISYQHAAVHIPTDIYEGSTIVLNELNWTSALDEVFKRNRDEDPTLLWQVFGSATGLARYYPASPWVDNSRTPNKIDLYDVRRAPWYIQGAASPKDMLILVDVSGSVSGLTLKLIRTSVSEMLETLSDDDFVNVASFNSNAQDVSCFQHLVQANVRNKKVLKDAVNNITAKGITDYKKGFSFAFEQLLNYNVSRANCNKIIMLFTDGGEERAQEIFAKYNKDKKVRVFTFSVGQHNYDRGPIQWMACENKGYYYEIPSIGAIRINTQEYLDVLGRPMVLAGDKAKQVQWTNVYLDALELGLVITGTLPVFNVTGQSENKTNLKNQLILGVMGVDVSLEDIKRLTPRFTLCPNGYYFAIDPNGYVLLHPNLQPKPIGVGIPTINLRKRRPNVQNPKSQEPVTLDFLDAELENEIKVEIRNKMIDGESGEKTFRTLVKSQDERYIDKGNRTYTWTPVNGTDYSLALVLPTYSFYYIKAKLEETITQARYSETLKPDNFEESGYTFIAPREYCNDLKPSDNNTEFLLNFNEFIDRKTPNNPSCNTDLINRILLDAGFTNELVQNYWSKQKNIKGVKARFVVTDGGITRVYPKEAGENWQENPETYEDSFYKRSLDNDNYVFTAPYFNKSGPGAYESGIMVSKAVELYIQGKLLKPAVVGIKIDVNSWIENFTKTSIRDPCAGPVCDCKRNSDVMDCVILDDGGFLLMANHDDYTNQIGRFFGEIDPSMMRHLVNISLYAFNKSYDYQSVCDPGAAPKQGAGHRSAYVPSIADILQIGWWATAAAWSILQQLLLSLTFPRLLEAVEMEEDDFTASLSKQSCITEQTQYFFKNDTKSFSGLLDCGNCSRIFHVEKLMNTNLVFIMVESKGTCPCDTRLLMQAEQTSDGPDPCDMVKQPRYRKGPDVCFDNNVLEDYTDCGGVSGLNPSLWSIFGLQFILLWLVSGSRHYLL
T1 sequence (O08532 958-1103 partner limits assumed): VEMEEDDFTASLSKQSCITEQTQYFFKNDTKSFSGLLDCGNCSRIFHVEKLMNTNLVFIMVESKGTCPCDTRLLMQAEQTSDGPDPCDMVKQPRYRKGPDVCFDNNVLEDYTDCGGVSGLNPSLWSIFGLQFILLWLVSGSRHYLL

Compound	% BINDING (RU400) 0.5 mM [1, 12]	% BINDING (RU400) 1 mM [1, 12]	% BINDING (RU400) 2 mM [1, 12]	% BINDING (RU400) mean ([1]; P4=100%, Example 6)	% BINDING (RU400) 0.5 mM ([1]; P4=100%, Example 7)	% BINDING (RU400) 1 mM ([1]; P4=100%, Example 7)	% BINDING (RU400) 2 mM ([1]; P4=100%, Example 7)	% BINDING (RU400) mean ([1]; P4=100%, Example 7)	other results
IKAKLAATITQAGGGC (Peptide P11, P4 analogue - negatively charged side chains A-substituted + GGGC anchor)	23%	22%	25%	23.3%	–	–	–	–	–
IKAKLEEAIAQAGGGC (Peptide P12, P4 analogue - polar side chains A-substituted + GGGC anchor)	14%	15%	17%	15.3%	–	–	–	–	–
AQTITEELKAKIGGGC (Peptide P8, Inverse peptide P4 + GGGC anchor)	3%	2%	2%	2.3%	–	–	–	–	NVA1309 binding to the peptide, in words [1]: lack of binding
IKAKLEETITQAGGGC (Peptide P4, carboxy-terminal VGGC_a2 region (II) + GGGC anchor) [carboxy-terminal VGGC_α2 region (II) + GGGC anchor, positive control]	100%	100%	100%	100%	100%	100%	100%	100%	–
IKAALEETITQAGGGC (Peptide P14, P4 analogue with Lysine in position 4 (K) substituted by Alanine (A) + GGGC anchor) [P4 analogue, K4 A-substituted + GGGC anchor]	–	–	–	–	0%	11%	6%	6%	–
CC(C)C[C@H](CN)CC(=O)O [Pregabalin, reference compound]	–	–	–	–	–	–	–	–	IC50 ([2]; read-out: IC50 of binding; recombinant membranes over-expressing the human α2δ-1 subunit (PCT/EP2014/077937); cited from earlier work): 23 nM; alleviating chronic pain resulting from nerve injury [3]: no longer effective; SPR binding to immobilized construct 2 [4]: lack of pregabalin binding; SPR binding to immobilized construct 1 [5]: lack of pregabalin binding; ability to alleviate mechanical hypersensitivity [6]: lost; SPR binding to immobilized peptide P1 [7]: no positive SPR signal
ETITQARYSETLKPGGGC (Peptide P6, carboxy-terminal VGGC_a2 region (IV) + GGGC anchor) [C-terminal P4 extension + GGGC anchor]	9%	7%	9%	8.3%	–	–	–	–	NVA1309 binding to the peptide, in words [1]: significant loss of NVA1309 binding capacity
LRVRIDDSLSNVGGGC (Peptide P9, P4 analogue - all aa substituted by most similar ones + GGGC anchor)	1%	1%	2%	1.3%	–	–	–	–	–
IKAKGGGC (Peptide P15, P4 analogue containing only the amino-terminal part of P4 + GGGC anchor)	–	–	–	–	19%	25%	26%	23%	–
CCC1=C[C@@H]2[C@H](C1)C[C@]2(CN)Cc1nnn[nH]1 [NVA1309, [(1R,5S,6S)-3-Ethyl-6-(1H-tetrazol-5-ylmethyl)-6-bicyclo[3.2.0]hept-3-enyl]methanamine]	–	–	–	–	–	–	–	–	IC50 ([2]; recombinant membranes over-expressing the human α2δ-1 subunit (PCT/EP2014/077937); read-out: IC50 of binding; cited from earlier work): 2.1 nM; SPR binding to immobilized construct 2 [4]: concentration-dependent binding; SPR binding to immobilized construct 1 [5]: concentration-dependent binding; SPR binding to immobilized α2δ-1 recombinant peptide [8]: concentration-dependent binding; SPR binding to immobilized peptide P3 [9]: concentration dependent binding; SPR binding to immobilized peptide P1 [7]: concentration-dependent binding; Kd [10]: 33.8 nM; kon ([10]; read-out: ka): 18000 M⁻¹ s⁻¹; kd [11]: 0.00061 s⁻¹
IAAKLEETITQAGGGC (Peptide P13, P4 analogue with Lysine in position 2 (K) substituted by Alanine (A) + GGGC anchor) [P4 analogue, K2 A-substituted + GGGC anchor]	–	–	–	–	133%	88%	90%	104%	–
IAAALEETITQAGGGC (Peptide P10, P4 analogue - positively charged side chains A-substituted + GGGC anchor)	4%	4%	4%	4%	–	–	–	–	–
